“Also recorded” adds a separate entry of the source.
Columns and labels:
[1] = target: T1, hemoglobin in stool samples (Homo sapiens, UniProt P68871+P69905); assay: 7-Day modified shipping simulation, hemoglobin % recovery by ELISA; set-up: from tissue; host or cells: stool samples
[2] = target: T1, hemoglobin in stool samples; assay: 7-Day shipping simulation, hemoglobin % recovery by ELISA; set-up: from tissue; host or cells: stool samples
Description: (§1) To assess the stability of hemoglobin in stool samples, samples were exposed to simulated shipping stress conditions using a thermal cycler. […] An ELISA based detection method is used to determine the hemoglobin concentrations of samples before and after exposure to the shipping simulation. Hemoglobin stability is calculated as a % recovery of hemoglobin after the samples have been exposed to the shipping simulation.
To assess the stability of hemoglobin in stool samples beyond 3 days, a 7-Day shipping simulation was created.

[3] = target: T1, hemoglobin in stool samples; assay: Accelerated shipping simulation (35C 16 hour challenge), hemoglobin % recovery by ELISA; set-up: from tissue; host or cells: stool samples;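 also: stool hemoglobin measured by ELISA before and after thermal-cycler shipping stress, stability given as percent of pre-stress hemoglobin recovered afterwards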
[4] = target: T1, hemoglobin in stool samples; assay: 3-Day shipping simulation, hemoglobin % recovery by ELISA; set-up: from tissue; host or cells: stool samples;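 also: stool samples put through shipping stress in a thermal cycler, hemoglobin quantified by ELISA before and after, stability given as post-stress % of the pre-stress level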
[5] = target: T1, hemoglobin in stool samples; assay: 3-Day extreme temperature shipping simulation, hemoglobin % recovery by ELISA; set-up: from tissue; host or cells: stool samples
Description: as §1
As an additional challenge, a shipping simulation meant to represent a “worst case” scenario was created using extreme temperatures.

hemoglobin (Hb) = target: T2, hemoglobin (Hb) (Homo sapiens, UniProt P68871+P69905); assay: Appendix B: additives in Hb Collection Buffer, % Hb Recovery
T2 construct: To assess the stability of hemoglobin in stool samples, samples were exposed to simulated shipping stress conditions; from tissue; host or cells: stool samples

hemoglobin = target: T3, hemoglobin (Homo sapiens, UniProt P68871+P69905); assay: Appendix B additive screen in Hb Collection Buffer, % Hb Recovery
T3 construct: To assess the stability of hemoglobin in stool samples, samples were exposed to simulated shipping stress conditions; from tissue; host or cells: stool samples

Hb = target: T4, Hb (Homo sapiens, UniProt P68871+P69905); assay: Appendix B additive screen, % Hb Recovery
T4 construct: To assess the stability of hemoglobin in stool samples, samples were exposed to simulated shipping stress conditions; from tissue; host or cells: stool samples

[6] = target: T1, hemoglobin in stool samples; assay: Accelerated shipping simulation (35C 16 hour challenge), hemoglobin % recovery by ELISA; set-up: To assess the stability of hemoglobin in stool samples, samples were exposed to simulated shipping stress conditions; from tissue; host or cells: stool samples;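 also: stool hemoglobin measured by ELISA before and after thermal-cycler shipping stress, stability given as percent of pre-stress hemoglobin recovered afterwards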
[7] = additive concentrations as in the 9th table
[8] = additive concentrations as in the 8th table
[9] = additive concentrations as in the 10th table

T2 sequence (P69905 2-142 limits assumed): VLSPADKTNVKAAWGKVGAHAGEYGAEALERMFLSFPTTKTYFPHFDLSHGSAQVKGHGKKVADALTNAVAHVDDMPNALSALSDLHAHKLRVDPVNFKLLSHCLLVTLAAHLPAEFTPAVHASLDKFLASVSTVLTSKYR
T2 sequence (P68871 2-147 limits assumed): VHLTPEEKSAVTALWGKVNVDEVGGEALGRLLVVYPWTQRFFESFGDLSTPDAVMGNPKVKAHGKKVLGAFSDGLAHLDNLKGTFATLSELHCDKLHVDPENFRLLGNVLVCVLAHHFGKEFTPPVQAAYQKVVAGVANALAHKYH
T1 sequence (P69905 2-142 limits assumed): as the sequence (P69905 2-142 limits assumed) above
T1 sequence (P68871 2-147 limits assumed): as the sequence (P68871 2-147 limits assumed) above
T3 sequence (P69905 2-142 limits assumed): as the sequence (P69905 2-142 limits assumed) above
T3 sequence (P68871 2-147 limits assumed): as the sequence (P68871 2-147 limits assumed) above
T4 sequence (P69905 2-142 limits assumed): as the sequence (P69905 2-142 limits assumed) above
T4 sequence (P68871 2-147 limits assumed): as the sequence (P68871 2-147 limits assumed) above

C=Cc1c(C)c2cc3[nH]c(cc4nc(cc5nc(cc1[nH]2)C(C)=C5CCC(=O)[O-])C(CCC(=O)[O-])=C4C)c(C)c3C=C.[Co+2] [Protoporphyrin IX Co, Protoporphyrin IX Cobalt] was tested, and the “Notes (Hb stability vs Hb Collection Buffer)” value ([1]; 3-6 μM, buffer pH 6.4-7.0 as in the 17th table) was “Improved Hb”, the “Hb stability (in words)” value ([1]; concentrations of 3-6 μM, adjusted pH range of 6.4-7.0) was “increased Hb stability” and the “Notes (Hb stability vs Hb Collection Buffer)” value ([2]; concentrations and buffer pH 6.5 or 7.4 as in the 14th table) was “Improved”. For the same compound, the “Notes (Hb stability vs Hb Collection Buffer)” value ([3]; 35C 16 hour challenge, concentrations and pH as in the 19th table) was “Improved Hb”, the “Hb stability (in words)” value ([3]; 35C 16 hour challenge, concentrations of 2.5-10 μM, adjusted pH range of 6.2-7.4) was “increased Hb stability” and the Results ([3]; additive concentration 5 uM) was “Improvement in % Hb”. For the same compound, the Results ([3]; additive concentration 5 uM, pH 6.5) was “Improvement”, the Results ([3]; additive concentration 5 uM, pH 7.4) was “Improvement” and the “Notes (Hb stability vs Hb Collection Buffer)” value ([4]; 3-Day and 7-Day Shipping Simulation, concentrations and pH as in the 18th table) was “Improved Hb”. The “Hb stability (in words)” value ([4]; 3 and 7 day Shipping Simulations, concentrations of 2.5-10 µM, adjusted pH of 6.8) was “increased Hb stability”, the “Notes (Hb stability vs Hb Collection Buffer)” value ([4]; concentrations and buffer pH 6.5 or 7.4 as in the 13th table) was “Improved” and the “Hb stability compared to the Polymedco buffer (in words)” value ([5]; additive in Hb Collection Buffer) was “improved Hb stability compared to the Polymedco buffer”. For the same compound, the “Notes (Hb stability vs Hb Collection Buffer)” value ([5]; concentrations and buffer pH 6.5 or 7.4 as in the 15th table) was “Improved”, the Results (hemoglobin (Hb); Additive Concentration 0.1 uM) was “No Improvement” and the Results (hemoglobin (Hb); additive concentration 5 uM) was “Improvement in % Hb”. For the same compound, the Results (hemoglobin (Hb); additive concentration 10 uM) was “Improvement in % Hb”.

For O=C(O)c1cccnc1 [Vitamin B3], the Results (hemoglobin) was “No Improvement”.

With [Ca+2].[Cl-].[Cl-] [Calcium Chloride] the “Notes (Hb stability vs Hb Collection Buffer)” value [2, 7] was “Improved Hb”, the Results [3] was “Calcium cation shows; also recorded: Improvement” and the Results ([4]; Additive Concentration 10 mM) was “Calcium cation shows”. For the same compound, the Results ([4]; additive concentration 5 mM) was “Calcium cation shows”, the Results ([4]; additive concentration 10 mM) was “Calcium cation shows” and the Results ([4]; additive concentration 20 mM) was “Calcium cation shows”. For the same compound, the Results ([4]; additive concentration 30 mM) was “Calcium cation shows”, the Results ([4]; additive concentration 40 mM) was “Calcium cation shows” and the Results ([4]; additive concentration 50 mM) was “Calcium cation shows”. The “Notes (Hb stability vs Hb Collection Buffer)” value [4, 8] was “Improved Hb”, the “Notes (Hb stability vs Hb Collection Buffer)” value [5, 9] was “Improved Hb” and the Results (hemoglobin (Hb); Additive Concentration 10 mM) was “No improvement; also recorded: Improvement in % Hb”. For the same compound, the Results (Hb) was “Calcium cation shows”.

With O=C(O)[C@@H](CO)O[C@@H]1O[C@H](CO)[C@@H](O)[C@H](O)[C@@H]1O the Results ([6]; additive concentration 0.377 mM) was “No Improvement” and the Results ([6]; additive concentration 1 mM) was “No Improvement”.

O=NO [Sodium Nitrite] was tested, and the Results (hemoglobin) was “No Improvement”.

With C[N+](C)(C)CC(=O)O [Betaine] the “Notes (Hb stability vs Hb Collection Buffer)” value [2, 7] was “Improved Hb”, the Results ([3]; additive concentration 50 uM) was “No Improvement” and the Results ([3]; additive concentration 500 uM) was “No Improvement”. For the same compound, the Results ([3]; additive concentration 50 mM) was “No Improvement”, the Results ([3]; additive concentration 96 mM) was “No Improvement” and the Results ([3]; additive concentration 3.5M) was “Improvement”. For the same compound, the Results ([4]; Additive Concentration 1M) was “Betaine shows improvement”, the Results ([4]; additive concentration 0.05M) was “Betaine shows improvement” and the Results ([4]; additive concentration 0.5M) was “Betaine shows improvement”. For the same compound, the Results ([4]; additive concentration 1.25M) was “Betaine shows improvement”, the Results ([4]; additive concentration 3M) was “Betaine shows improvement” and the Results ([4]; additive concentration 3.5M) was “Betaine shows improvement”. For the same compound, the Results ([4]; additive concentration 3.75M) was “Betaine shows improvement”, the Results ([4]; additive concentration 4M) was “Betaine shows improvement” and the Results ([4]; additive concentration 5M) was “Betaine shows improvement”. The Results ([4]; additive concentration […]) was “Betaine shows improvement”, the “Notes (Hb stability vs Hb Collection Buffer)” value [4, 8] was “Improved Hb” and the “Notes (Hb stability vs Hb Collection Buffer)” value [5, 9] was “Improved Hb”. For the same compound, the Results (Hb) was “Betaine shows improvement”.

Reference: US20240402196A1 (Exact Sciences Corporation, priority 2018, published 2024)
